Data published in patent publication US12622918B2, “Formulations and dosages for administering a compound that inhibits MCL1 protein” (Amgen Inc., priority 2019, dated 2026).

Tests used:
[1] = test system: KMS34; assay: Cell viability (CellTiterGlo), KMS34; format: cell-based; settings: KMS-34; KMS34, Multiple myeloma; 24 hours; 10% FBS; read-out: AMS 176 IC50
[2] = Pharmacokinetics in rats; settings: male, Sprague Dawley, rat, in vivo, read-out: mean terminal elimination half-life (t1/2,z) (converted)
From the text: (§1) The pharmacokinetics (PK) of the compound of Formula I after single intravenous (IV) or oral administration were characterized in male CD1 mice, female athymic nude mice, male Nu/Nu mice, male Sprague Dawley rats, male beagle dogs, and male cynomolgus monkeys. The clearance (CL) of the compound was low in mice, rats, dogs, and monkeys relative to their hepatic blood flow. Volume of distribution at steady state (Vss) in mice, rats, dogs, and monkeys was variable across the species.

[3] = test system: dogs; assay: 28-day GLP IV toxicology study in dogs; format: in vivo; settings: dog
From the text: (§2) The doses selected for the 28-day IV rat and dog toxicology studies were intended to characterize the toxicity of the compound of Formula I and provide data to support a starting dose in the first-in-human (FIH) study. An IV route of administration and a dosing schedule of 2 days on/5 days off was used to support the anticipated clinical route and dosing schedule.

[4] = test system: KMS-28-BM; assay: Cell viability (CellTiterGlo), KMS-28-BM; format: cell-based; settings: Multiple myeloma, 24 hours, 10% FBS, read-out: AMS 176 IC50
[5] = test system: Ramos; assay: Cell viability (CellTiterGlo), Ramos; format: cell-based; settings: Homo sapiens, NHL, 24 hours, 10% FBS, read-out: AMS 176 IC50
[6] = test system: OPM2-Luc tumor xenografts; assay: OPM2-Luc xenograft efficacy, once daily dosing; format: in vivo, mice; settings: for animals tumor free: day 24
Method: OPM2-Luc cells (5×10^6) were implanted subcutaneously into female athymic nude mice. […] Three of 10 animals in the 30 mg/kg group and 10 of 10 animals in the 60 mg/kg group were tumor free on day 24.

[7] = Pharmacokinetics in monkeys; settings: male, monkey, in vivo, read-out: mean terminal elimination half-life (t1/2,z) (converted)
From the text: as §1

[8] = test system: MOLM-13; assay: Cell viability (CellTiterGlo), MOLM-13; format: cell-based; settings: Homo sapiens; MOLM-13, AML; 24 hours; 10% FBS; read-out: AMS 176 IC50
[9] = test system: OPM2 multiple myeloma tumor cell line; assay: Viability of OPM2 cells; format: cell-based; settings: Homo sapiens
[10] = Pharmacokinetics in mice; format: in vivo
From the text: as §1

[11] = Distribution into blood cells; format: in vitro ADME
[12] = test system: HL-60; assay: Cell viability (CellTiterGlo), HL-60; format: cell-based; settings: Homo sapiens; HL-60, AML; 24 hours; 10% FBS; read-out: AMS 176 IC50
[13] = test system: Raji; assay: Cell viability (CellTiterGlo), Raji; format: cell-based; settings: Homo sapiens, NHL, 24 hours, 10% FBS, read-out: AMS 176 IC50
[14] = test system: Molm13-Luc orthotopic tumors; assay: MOLM-13 Luc acute myeloid leukemia orthotopic model; format: in vivo; settings: for TGI (tumor burden, whole body luminescence): female NSG mice
Method: On day 0, 70 female NSG mice were injected IV with 5×10^4 human Molm13-Luc AML tumor cells.

[15] = test system: rat; assay: 28-day GLP rat IV infusion toxicology study; format: in vivo
From the text: as §2

[16] = test system: OPM2-Luc tumor xenografts; assay: OPM2-Luc xenograft efficacy, intermittent dosing; format: in vivo; settings: for animals tumor free: day 26
Method: OPM2-Luc cells (5×10^6) were implanted subcutaneously into female athymic nude mice. […] With all tested doses and schedules, dose-dependent TGI was observed (FIG. 5). […] Six of 10 animals in the 60 mg/kg 5 days on/2 days off group and 10 of 10 animals in the once daily group were tumor free on day 26.

[17] = test system: MM1S; assay: Cell viability (CellTiterGlo), MM1S; format: cell-based; settings: Homo sapiens, MM1.S, Multiple myeloma, 24 hours, 10% FBS, read-out: AMS 176 IC50
[18] = test system: KMS26; assay: Cell viability (CellTiterGlo), KMS26; format: cell-based; settings: KMS-26; KMS26, Multiple myeloma; 24 hours; 10% FBS; read-out: AMS 176 IC50
[19] = test system: human blood; assay: In vitro hemolysis of whole blood, human; settings: highest concentration tested, 0.25 mg/mL
[20] = molecular target: Dog MCL1 (Canis lupus familiaris, UniProt Q8HYS5); assay: Cell-free TR-FRET BIM-binding assay, Dog MCL1; settings: BIM-binding partner Dog MCL1; n = 3
[21] = test system: Pfeiffer; assay: Cell viability (CellTiterGlo), Pfeiffer; format: cell-based; settings: Homo sapiens, NHL, 24 hours, 10% FBS, read-out: AMS 176 IC50
[22] = test system: subjects with relapsed/refractory acute myelogenous leukemia; assay: Phase 1 FIH study, acute myeloid leukemia part 3; format: in vivo, human
Method: In part 3, 10 total subjects were enrolled across 2 cohorts, with doses of 60 mg/m^2 or 120 mg/m^2.

Chain of Dog MCL1 (Q8HYS5 whole entry): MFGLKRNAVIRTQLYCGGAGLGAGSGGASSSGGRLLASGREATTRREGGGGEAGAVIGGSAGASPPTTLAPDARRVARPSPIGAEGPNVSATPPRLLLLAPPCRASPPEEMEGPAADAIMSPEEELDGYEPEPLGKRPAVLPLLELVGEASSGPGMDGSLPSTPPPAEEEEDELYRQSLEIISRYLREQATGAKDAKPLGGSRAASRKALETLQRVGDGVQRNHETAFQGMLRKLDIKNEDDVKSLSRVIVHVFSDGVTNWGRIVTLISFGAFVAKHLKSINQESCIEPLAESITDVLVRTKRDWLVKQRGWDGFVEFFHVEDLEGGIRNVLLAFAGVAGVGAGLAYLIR

With `CO[C@H]1/C=C/C[C@H](C)[C@@H](C)S(=O)(=O)NC(=O)c2ccc3c(c2)N(C[C@@H]2CC[C@H]21)C[C@@]1(CCCc2cc(Cl)ccc21)CO3` [AMG 176] as the compound, how does the IC50 [1] read?
Its IC50 is 6.05 µM.

And the half-life [2]?
Its half-life is 1170 min.

And the “finding related to morbidity and mortality” value [3]?
The value was “mucosal epithelial degeneration in the small and large intestines”.

And the dose with mortality ([3]; IV, 28-day)?
Its dose with mortality is 20 mg/kg.

What about the “highest-nonseverely-toxic dose (HNSTD)” value ([3]; IV, 2 days on/5 days off, 28-day) of the same compound?
Its value is 10 mg/kg.

And the IC50 [4]?
Its IC50 is 205 nM.

What about the IC50 [5] of the same compound?
The IC50 was 34 nM.

And the TGI ([6]; 20 mg/kg once daily oral gavage, p<0.001)?
Its TGI is 63%.

And the “effect on established OPM2-Luc tumors” value ([6]; 30 mg/kg and 60 mg/kg orally once daily, summary statement)?
The value was “tumor regression”.

And the tumor regression ([6]; 30 mg/kg once daily oral gavage, p<0.001)?
Its tumor regression is 50%.

What about the animals tumor free ([6]; 30 mg/kg once daily) of the same compound?
The animals tumor free was “Three of 10”.

And the tumor regression ([6]; 60 mg/kg once daily oral gavage, p<0.0001)?
Its tumor regression is 100%.

What about the animals tumor free ([6]; 60 mg/kg once daily) of the same compound?
Its animals tumor free is 10 of 10.

And the “changes in body weight and body score assessment” value ([6]; 10-60 mg/kg once daily oral gavage)?
The value was “no evidence of AMG 176-related changes”.

What about the half-life [7] of the same compound?
The half-life was 99.6 min.

What about the IC50 [8] of the same compound?
Its IC50 is 241 nM.

What about the IC50 ([9]; OPM-2, growth medium containing 5% human serum) of the same compound?
The IC50 was 703 nM.

And the IC50 ([9]; OPM-2, growth medium containing 10% fetal bovine serum)?
The IC50 was 236 nM.

And the IC50 ([9]; OPM-2, serum-free growth medium)?
The IC50 was 15.5 nM.

What about the “mean terminal elimination half-life (t1/2,z)” value [10] of the same compound?
Its value is 13.8 h.

And the “distribution into blood cells” value [11]?
The value was “did not preferentially distribute into blood cells”.

And the IC50 [12]?
Its IC50 is 110 nM.

What about the IC50 [13] of the same compound?
The IC50 was 3.55 µM.

What about the “TGI (tumor burden, whole body luminescence)” value ([14]; 30 mg/kg oral QD2) of the same compound?
Its value is 28%.

And the “TGI (tumor burden, whole body luminescence)” value ([14]; 60 mg/kg oral QD2)?
Its value is 69%.

What about the “TGI (tumor burden, whole body luminescence)” value ([14]; 100 mg/kg oral QD) of the same compound?
Its value is 86%.

What about the “overt toxicity by changes in body weight” value ([14]; all AMG 176 groups) of the same compound?
The value was “No evidence of overt toxicity”.

And the “finding related to morbidity and mortality” value [15]?
Its value is “mucosal epithelial degeneration in the small and large intestines”.

And the dose with mortality ([15]; IV infusion, 28-day)?
Its dose with mortality is 120 mg/kg.

What about the “severely toxic dose in 10% of animals (STD10)” value ([15]; IV infusion, 2 days on/5 days off, 28-day) of the same compound?
The value was 60 mg/kg.

And the TGI ([16]; 30 mg/kg 2 days on/5 days off)?
The TGI was 54%.

What about the TGI ([16]; 30 mg/kg 5 days on/2 days off) of the same compound?
The TGI was 85%.

And the “effect on growth of established OPM2-Luc tumors” value ([16]; 30 mg/kg and 60 mg/kg, two days on/5 days off and 5 days on/2 days off, summary statement)?
Its value is “significantly inhibited the growth”.

And the TGI ([16]; 30 mg/kg once daily oral gavage)?
Its TGI is 84%.

And the tumor regression ([16]; 60 mg/kg 2 days on/5 days off)?
Its tumor regression is 21%.

What about the tumor regression ([16]; 60 mg/kg 5 days on/2 days off) of the same compound?
The tumor regression was 87%.

And the animals tumor free ([16]; 60 mg/kg 5 days on/2 days off)?
The animals tumor free was “Six of 10”.

What about the tumor regression ([16]; 60 mg/kg once daily) of the same compound?
The tumor regression was 100%.

And the animals tumor free ([16]; 60 mg/kg once daily)?
Its animals tumor free is 10 of 10.

And the “overt toxicity by body weight and body score assessment” value ([16]; 30 or 60 mg/kg, all schedules)?
Its value is “No evidence of overt toxicity”.

What about the IC50 [17] of the same compound?
The IC50 was 5.12 µM.

What about the IC50 [18] of the same compound?
Its IC50 is 248 nM.

And the “hemolysis of whole blood” value [19]?
The value was “not hemolytic”.

And the IC50 [20]?
The IC50 was 0.284 nM.

What about the IC50 [21] of the same compound?
The IC50 was 18.9 µM.

And the “Grade 3 adverse events, subjects” value ([22]; AML part 3)?
Its value is 70%.

And the “Serious adverse events, subjects” value ([22]; AML part 3)?
The value was 60%.

And the “adverse events considered related to AMG 176, subjects” value ([22]; AML part 3)?
The value was 40%.

And the “adverse events leading to discontinuation of investigational product, subjects” value ([22]; AML part 3)?
Its value is 20%.

And the fatal adverse events ([22]; AML part 3)?
The fatal adverse events was “No fatal adverse events occurred”.

What about the “febrile neutropenia leading to discontinuation” value ([22]; AML part 3) of the same compound?
Its value is 10%.

And the “grade 4 adverse events, subjects” value ([22]; AML part 3)?
The value was 20%.

And the “related increased blood bilirubin” value ([22]; AML part 3)?
Its value is 20%.

What about the related nausea ([22]; AML part 3) of the same compound?
The related nausea was 20%.

What about the “superior vena cava syndrome leading to discontinuation” value ([22]; AML part 3) of the same compound?
The value was 10%.

And the “adverse events, subjects” value ([22]; AML part 3, 10 subjects)?
Its value is 80%.

What about the “anemia, subjects” value ([22]; AML part 3, any grade) of the same compound?
Its value is 20%.

What about the “hypokalemia, subjects” value ([22]; AML part 3, any grade) of the same compound?
The value was 30%.

What about the “hypomagnesemia, subjects” value ([22]; AML part 3, any grade) of the same compound?
Its value is 20%.

And the “increased blood bilirubin, subjects” value ([22]; AML part 3, any grade)?
The value was 20%.

And the “nausea, subjects” value ([22]; AML part 3, any grade)?
The value was 30%.

What about the “peripheral edema, subjects” value ([22]; AML part 3, any grade) of the same compound?
Its value is 30%.

What about the “pyrexia, subjects” value ([22]; AML part 3, any grade) of the same compound?
The value was 20%.

And the “vomiting, subjects” value ([22]; AML part 3, any grade)?
Its value is 20%.

And the “anemia of grade 3 or higher” value ([22]; AML part 3, both cohorts combined)?
The value was 20%.

What about the “exposures (Cmax and AUC) versus dose” value ([22]; AML, 10 subjects, 60 or 120 mg/m^2, preliminary) of the same compound?
The value was “generally increased with increasing doses”.
